{"source": "patent US20040198663A1", "about": "“Method of treating cardiac ischemia by using erythropoietin” (priority 2003, published 2004)", "system": "hearts from normoxic rabbits", "test": "Mechanism studies: inhibitors/blockers perfused alone, then with erythropoietin, before global ischemia", "design": "species or system New Zealand White rabbit", "conditions": "for effect of protein kinase inhibitor on the cardioprotective effect of erythropoietin: inhibitor 15 min alone, then 15 min with erythropoietin 1.0 U/ml prior to ischemia", "protocol": "Resistance to myocardial ischemia. Hearts from infant rabbits were perfused with bicarbonate buffer, and biventricular function was monitored continuously throughout each experiment as described in Rafiee et al., Circulation 106:239-45 (2002). For concentration response studies, hearts were then perfused with erythropoietin (0.5-10.0 U/ml) for 15 minutes prior to 30 minutes ischemia and 35 minutes reperfusion. For mechanism studies with protein kinase inhibitors, potassium channel blockers or nitric oxide synthase inhibitors, hearts were perfused with drugs for 15 minutes alone followed by 15 minutes in combination with erythropoietin prior to ischemia. Hearts perfused with protein kinase inhibitors or potassium channel blockers alone in the absence of erythropoietin for 30 minutes prior to ischemia served as untreated controls for these studies. Recovery of post-ischemic left and right ventricular developed pressure was expressed as a percentage of its pre-drug, pre-ischemic value.\nHearts from normoxic rabbits were perfused with protein kinase inhibitors alone for 15 minutes and then combined with erythropoietin for a further 15 minute period prior to ischemia.\nHearts were perfused with KATP channel blockers alone for 15 minutes and then in combination with erythropoietin (1.0 U/ml) for another 15-minute period prior to ischemia.\nHearts were perfused with Paxilline (1 μM), a blocker of the KCa channel, alone for 15 minutes and then in combination with erythropoietin (1.0 U/ml) for another 15-minute period prior to ischemia.\nHearts from normoxic rabbits were perfused with nitric oxide synthase inhibitors combined with erythropoietin (1.0 U/ml) for 15 minutes prior to ischemia.", "note": "“Also recorded” adds a separate entry of the source."}
{"smiles": "COc1ccc2c(c[n+](C)c3c4cc5c(cc4ccc23)OCO5)c1OC", "note": "[chelerythrine]", "values": [{"measurement": "effect of protein kinase inhibitor on the cardioprotective effect of erythropoietin", "value": "abolished"}]}
{"smiles": "COc1ccc(Cl)cc1C(=O)NCCc1ccc(S(=O)(=O)NC(=O)NC2CCCCC2)cc1", "note": "[Glibenclamide]", "values": [{"measurement": "effect on the cardioprotective effect of erythropoietin", "setting": "glibenclamide 3 μM, 15 min alone then 15 min with erythropoietin 1.0 U/ml", "value": "completely abolished"}, {"measurement": "effect on the cardioprotective effect of erythropoietin", "setting": "glibenclamide 3 μM, 15 min alone then 15 min with erythropoietin 1.0 U/ml, listed as glibenclamide", "value": "abolished; also recorded: completely prevented"}]}
{"smiles": "CCCCCC(O)CCCC(=O)O", "note": "(centres unmarked) [5-hydroxydecanoate]", "values": [{"measurement": "effect on the cardioprotective effect of erythropoietin", "setting": "5-hydroxydecanoate 300 μM, 15 min alone then 15 min with erythropoietin 1.0 U/ml", "value": "partially"}, {"measurement": "effect on the cardioprotective effect of erythropoietin", "setting": "5-hydroxydecanoate 300 μM, 15 min alone then 15 min with erythropoietin 1.0 U/ml, listed as 5-HD", "value": "abolished; also recorded: only partially prevented"}]}
{"smiles": "CNC(=S)NS(=O)(=O)c1cc(CCNC(=O)c2cc(Cl)ccc2OC)ccc1OC", "note": "[HMR 1098]", "values": [{"measurement": "effect on the cardioprotective effect of erythropoietin", "setting": "HMR 1098 30 μM, 15 min alone then 15 min with erythropoietin 1.0 U/ml", "value": "abolished; also recorded: completely prevented; also recorded: completely blocked"}]}
{"smiles": "COc1cccc(-c2cc(=O)c3ccccc3o2)c1N", "note": "[PD98059]", "values": [{"measurement": "effect of protein kinase inhibitor on the cardioprotective effect of erythropoietin", "value": "abolished"}]}
{"smiles": "CC(C)(O)[C@H]1O[C@H]2CC[C@@]3(C)[C@@](O)(CC[C@H]4Cc5c([nH]c6ccccc56)[C@@]43C)C2=CC1=O", "note": "[Paxilline]", "values": [{"measurement": "effect on untreated hearts", "setting": "Paxilline 1 μM alone, no erythropoietin", "value": "no effect"}]}
{"smiles": "C[S+]([O-])c1ccc(-c2nc(-c3ccncc3)c(-c3ccc(F)cc3)[nH]2)cc1", "note": "(centres unmarked) [SB203580]", "values": [{"measurement": "effect of protein kinase inhibitor on the cardioprotective effect of erythropoietin", "value": "abolished"}]}
{"smiles": "CNC(=N)NCCC[C@H](N)C(=O)O", "note": "[L-NMA]", "values": [{"measurement": "effect on the cardioprotective effect of erythropoietin", "setting": "L-NMA 100 μM combined with erythropoietin 1.0 U/ml for 15 minutes", "value": "did not block"}]}
{"smiles": "COC(=O)[C@@H](N)CCCNC(=N)N[N+](=O)[O-]", "note": "[L-NAME]", "values": [{"measurement": "effect on the cardioprotective effect of erythropoietin", "setting": "L-NAME 200 μM combined with erythropoietin 1.0 U/ml for 15 minutes", "value": "did not block"}]}
